In US20240216395A1, “19-NOR C3,3-DISUBSTITUTED C21 -N-PYRAZOLYL STEROID FOR USE IN TREATING MAJOR DEPRESSIVE DISORDER AND […]” (priority 2021, published 2024):
Several values for one entry are separate records, joined by “and”; a condition that tells them apart may be missing. Identical values can stand only once.

Tested on: adult subjects with major depressive disorder (MDD)
Assay: Phase 3 placebo-controlled study of Compound (1) 50 mg QD for 14 days in MDD (NCT04442490): efficacy scales
Type: in vivo, human
Settings: for Day 15 HAMD-17 improvement maintained on average: Day 15 HAMD-17 responders; for Day 15 MADRS improvement maintained on average: Day 15 MADRS responders
From the text: Title of Study: A Phase 3, Multicenter, Double-Blind, Randomized, Placebo-Controlled Study Evaluating the Efficacy of Compound (1) in the Treatment of Adult Subjects with Major Depressive Disorder
This was a randomized, double-blind, parallel-group, placebo-controlled study in subjects with MDD. The diagnosis of MDD was made according to Structured Clinical Interview for Diagnostic and DSM-5 Clinical Trial Version (SCID-5-CT) performed by a qualified healthcare professional.
Eligible subjects were stratified based on use of antidepressant treatment (current/stable or not treated/withdrawn ≥60 days) and randomized within each stratum to one of 2 treatment groups (Compound (1)—50 mg or matching placebo) in a 1:1 ratio. Subjects self-administered study drug once daily at approximately 8 PM with fat-containing food (e.g., within 1 hour of an evening meal which contains fat or with a fat-containing snack), on an outpatient basis, for 14 days. Subjects returned to the study center during the treatment and follow-up periods as outlined in Table 1.
Subjects self-administered Compound (1) (50 mg or 40 mg [for dose adjustments only as permitted]) or matching placebo orally once daily at approximately 8 PM with food for 14 days. The 50-mg and 40-mg doses was administered as 2 capsules per dose (50 mg, administered as one 30 mg-capsule and one 20-mg capsule, and 40-mg, administered as two 20-mg capsules). Placebo was also administered as 2 capsules to maintain the blind.
The estimand for the primary efficacy analysis was the mean change from baseline in HAM-D total score at Day 15. This was analyzed using a mixed effects model for repeated measures (MMRM); the model included treatment, baseline HAM-D total score, stratification factor, assessment time point, and time point-by-treatment as explanatory variables. All explanatory variables were treated as fixed effects. All post-baseline time points were included in the model. The main comparison was between Compound (1) and placebo at the 15-day time point. Model-based point estimates (e.g., least squares [LS] means, 95% confidence intervals, and p-values) were reported where applicable. An unstructured covariance structure was used to model the within-subject errors. If there was a convergence issue with the unstructured covariance model, Toeplitz, or Autoregressive (1) [AR(1)] covariance structure was used, following this sequence until convergence was achieved. […] When the covariance structure was not UN, the sandwich estimator for the variance covariance matrix was derived, using the EMPIRICAL option in the PROC MIXED statement in SAS.
Similar to those methods described above for the primary endpoint, an MMRM was used for the analysis of the change from baseline in other time points in HAM-D total score, MADRS total score, HAM-A total score, SF-36v2 score, PHQ-9 score, and selected individual items and/or subscale scores in HAM-D for change from baseline.
Generalized estimating equation (GEE) methods were used for the analysis of HAM-D Response (defined as ≥50% reduction from baseline in HAM-D total score) and HAM-D Remission (defined as HAM-D total score of ≤7.0). GEE models included terms for treatment, baseline score, stratification factor, assessment time point, and time point-by-treatment as explanatory variables. The comparison of interest was the difference between Compound (1) and matching placebo at the 15-day time point. Model-based point estimates (e.g., odds ratios), 95% confidence intervals, and p-values were reported.
A GEE method was also used for the analysis of CGI-I Response including terms for treatment, baseline CGI-S score, stratification factor, assessment time point, and time point-by-treatment as explanatory variables.
Compound (1) is an investigational two-week, once-daily oral drug for MDD that represents a potential new class of drug for the management of this common but serious mental health disorder. […]

C[C@@]1(O)CC[C@H]2[C@H](CC[C@@H]3[C@@H]2CC[C@]2(C)[C@@H](C(=O)Cn4cc(C#N)cn4)CC[C@@H]32)C1 [Compound (1), 1-(2-((3R,5R,8R,9R,10S,13S,14S,17S)-3-hydroxy-3,13-dimethylhexadecahydro-1H-cyclopenta[a]phenanthren-17-yl)-2-oxoethyl)-1H-pyrazole-4-carbonitrile]
HAMD-17 Remission odds ratio (95% CI) vs placebo (ADT=No, Day 3): 2.4 (0.91, 6.58)
HAMD-17 Response odds ratio (95% CI) vs placebo (ADT=No, Day 3): 2.3 (1.36, 3.79)
HAMD-17 Remission odds ratio (95% CI) vs placebo (ADT=No, Day 8): 2.1 (1.14, 3.91)
HAMD-17 Response odds ratio (95% CI) vs placebo (ADT=No, Day 8): 1.7 (1.08, 2.58)
HAMD-17 Remission odds ratio (95% CI) vs placebo (ADT=No, Day 12): 1.5 (0.92, 2.44)
HAMD-17 Response odds ratio (95% CI) vs placebo (ADT=No, Day 12): 1.5 (1.02, 2.35)
HAMD-17 Remission odds ratio (95% CI) vs placebo (ADT=No, Day 15): 1.1 (0.70, 1.76)
HAMD-17 Response (ADT=No, Day 15): 55.5 n/N (%)
HAMD-17 Response odds ratio (95% CI) vs placebo (ADT=No, Day 15): 1.4 (0.92, 2.12)
HAMD-17 Remission odds ratio (95% CI) vs placebo (ADT=No, Day 21): 1.0 (0.62, 1.65)
HAMD-17 Response odds ratio (95% CI) vs placebo (ADT=No, Day 21): 1.1 (0.73, 1.70)
HAMD-17 Remission odds ratio (95% CI) vs placebo (ADT=No, Day 28): 0.86 (0.52, 1.41)
HAMD-17 Response odds ratio (95% CI) vs placebo (ADT=No, Day 28): 1.0 (0.65, 1.55)
HAMD-17 Remission odds ratio (95% CI) vs placebo (ADT=No, Day 35): 1.1 (0.66, 1.74)
HAMD-17 Response odds ratio (95% CI) vs placebo (ADT=No, Day 35): 1.1 (0.72, 1.70)
HAMD-17 Remission odds ratio (95% CI) vs placebo (ADT=No, Day 42): 1.0 (0.61, 1.55)
HAMD-17 Response odds ratio (95% CI) vs placebo (ADT=No, Day 42): 1.2 (0.81, 1.90)
HAMD-17 Response odds ratio (95% CI) vs placebo (ADT=Yes, Day 3): 1.9 (0.87, 3.98)
HAMD-17 Response odds ratio (95% CI) vs placebo (ADT=Yes, Day 8): 1.9 (1.01, 3.73)
HAMD-17 Response odds ratio (95% CI) vs placebo (ADT=Yes, Day 12): 1.9 (0.98, 3.58)
HAMD-17 Response (ADT=Yes, Day 15): 57.3 n/N (%)
HAMD-17 Response odds ratio (95% CI) vs placebo (ADT=Yes, Day 15): 1.4 (0.74, 2.71)
HAMD-17 Response odds ratio (95% CI) vs placebo (ADT=Yes, Day 21): 1.8 (0.95, 3.53)
HAMD-17 Response odds ratio (95% CI) vs placebo (ADT=Yes, Day 28): 1.4 (0.72, 2.64)
HAMD-17 Response odds ratio (95% CI) vs placebo (ADT=Yes, Day 35): 1.4 (0.76, 2.75)
HAMD-17 Response odds ratio (95% CI) vs placebo (ADT=Yes, Day 42): 1.7 (0.91, 3.34)
CGI-Improvement Response odds ratio vs placebo (Day 3): 1.8 (0.0032)
CGI-Severity LS mean TRT diff vs placebo (Day 3): −0.4 (<0.0001)
HAMD-17 total score LS mean (SE) CFB (Day 3): −9.8 (0.38)
HAMD-17 total score LS mean TRT diff vs placebo (Day 3): −3.0 (<0.0001) points
CGI-Improvement Response odds ratio vs placebo (Day 8): 1.9 (0.0005)
CGI-Severity LS mean TRT diff vs placebo (Day 8): −0.4 (0.0001)
HAM-A total score LS mean (SE) CFB (Day 8): −8.7 (0.40)
HAMD-17 total score LS mean (SE) CFB (Day 8): −12.0 (0.45)
MADRS total score LSM (SE) CFB (Day 8): −14.6 (0.69)
CGI-Improvement Response odds ratio vs placebo (Day 12): 1.6 (0.0101)
CGI-Severity LS mean TRT diff vs placebo (Day 12): −0.3 (0.0014)
CGI-Improvement Response odds ratio vs placebo (Day 15): 1.5 (0.0191)
HAM-A total score LS mean (SE) CFB (Day 15): −10.4 (0.43)
HAMD-17 Anxiety subscale LSM difference vs placebo (Day 15): −0.9 points
HAMD-17 Bech-6 subscale LSM difference vs placebo (Day 15): −3.2 points
HAMD-17 Core Depression subscale LSM difference vs placebo (Day 15): −2.0 points
HAMD-17 Maier subscale LSM difference vs placebo (Day 15): −3.0 points
HAMD-17 early insomnia item mean reduction from baseline (Day 15): −1.0
HAMD-17 late insomnia item mean reduction from baseline (Day 15): −0.8
HAMD-17 middle insomnia item mean reduction from baseline (Day 15): −1.2
HAMD-17 total score LS mean (SE) CFB (Day 15): −14.1 (0.51)
MADRS Response (≥50% reduction) rate (Day 15): 51.6%
MADRS total score LS mean TRT diff vs placebo (Day 15): −2.4 points and −2.4 (0.0238) points
SF-36v2 Bodily Pain (BP) CFB (Day 15): 5.26
SF-36v2 General Health (GH) CFB (Day 15): 4.51
SF-36v2 Mental Health (MH) CFB (Day 15): 14.45
SF-36v2 Physical-Functioning (PF) CFB (Day 15): 3.41
SF-36v2 Role-Emotional (RE) CFB (Day 15): 14.19
SF-36v2 Role-Physical (RP) CFB (Day 15): 3.45
SF-36v2 Social-Functioning (SF) CFB (Day 15): 12.89
SF-36v2 Vitality (V) CFB (Day 15): 13.12
SF-36v2 least-squares mean vitality score increase versus placebo (Day 15): 3.1
HAMD-17 total score LS mean TRT diff vs placebo (Day 15 (primary endpoint)): −1.7 points and −1.7 (0.0141) points
HAMD-17 LSM treatment difference vs placebo, subgroup (Day 15, ADT use No (monotherapy)): −1.98
HAMD-17 LSM treatment difference vs placebo, subgroup (Day 15, ADT use Yes (combination)): −1.21
HAMD-17 LSM treatment difference vs placebo, subgroup (Day 15, age 18-24 years): −1.67
HAMD-17 LSM treatment difference vs placebo, subgroup (Day 15, age 25-50 years): −1.96
HAMD-17 LSM treatment difference vs placebo, subgroup (Day 15, age 51-64 years): −1.18
HAMD-17 LSM treatment difference vs placebo, subgroup (Day 15, baseline BMI 18.5-24.9 kg/m^2): −1.02
HAMD-17 LSM treatment difference vs placebo, subgroup (Day 15, baseline BMI 25-29.9 kg/m^2): −3.94
HAMD-17 LSM treatment difference vs placebo, subgroup (Day 15, baseline BMI ≥30 kg/m^2): −1.04
HAMD-17 LSM treatment difference vs placebo, subgroup (Day 15, baseline HAMD-17TS <26): −1.25
HAMD-17 LSM treatment difference vs placebo, subgroup (Day 15, baseline HAMD-17TS ≥26): −1.91
HAMD-17 LSM treatment difference vs placebo, subgroup (Day 15, female): −1.58
HAMD-17 LSM treatment difference vs placebo, subgroup (Day 15, male): −1.81
HAMD-17 LSM treatment difference vs placebo, subgroup (Day 15, race Black): −2.20
HAMD-17 LSM treatment difference vs placebo, subgroup (Day 15, race Other): −4.22
HAMD-17 LSM treatment difference vs placebo, subgroup (Day 15, race White): −1.47
Day 15 HAMD-17 improvement maintained on average (Day 28): 81.7%
Day 15 HAMD-17 improvement maintained on average (Day 42): 86.1%
Day 15 MADRS improvement maintained on average (Day 28): 85.2%
Day 15 MADRS improvement maintained on average (Day 42): 87.6%
Patients retaining ≥65% of Day 15 HAMD-17 improvement (Day 21): 81.0%
MADRS total score LS mean TRT diff vs placebo (Day 28): −1.5
MADRS total score LSM (SE) CFB (Day 28): −16.4 (0.80)
HAMD-17 total score LS mean (SE) CFB (Day 42): −13.5 (0.55)
HAMD-17 total score LS mean TRT diff vs placebo (Day 42): −0.9
MADRS total score LS mean TRT diff vs placebo (Day 42): −1.3
MADRS total score LSM (SE) CFB (Day 42): −17.5 (0.83)
Patients retaining ≥65% of Day 15 HAMD-17 improvement (Day 42): 75.4% and 74.9%
HAMD-17 Remission (HAMD-17≤7) rate (overall, Day 3): 7.6%
HAMD-17 Remission odds ratio vs placebo (overall, Day 3): 3.57
HAMD-17 Response (≥50% reduction) rate (overall, Day 3): 29.3%
HAMD-17 Response odds ratio vs placebo (overall, Day 3): 2.14
HAMD-17 Response (≥50% reduction) rate (overall, Day 15): 56.0%
HAMD-17 Response odds ratio vs placebo (overall, Day 15): 1.40
